Measurements: ChEMBL document CHEMBL4138123, “Design, synthesis and biological evaluation of novel pyrazolochalcones as potential modulators of PI3K/Akt/mTOR pathway and inducers of apoptosis in breast cancer cells” (Eur J Med Chem, 2017)

What was measured:
Type in all cases: functional
RPMI-8226 [1] = assay: Cytotoxicity against human RPMI8226 cells assessed as growth inhibition after 48 hrs by sulforhodamine B assay; conditions: RPMI-8226, 48 h
SR = assay: Cytotoxicity against human SR cells assessed as growth inhibition after 48 hrs by sulforhodamine B assay; conditions: for CC50: read-out: LC50 (the source's name)
A549 [2] = assay: Cytotoxicity against human A549/ATCC cells assessed as growth inhibition after 48 hrs by sulforhodamine B assay; conditions: A549, 48 h
HCC 2998 [3] = assay: Cytotoxicity against human HCC2998 cells assessed as growth inhibition after 48 hrs by sulforhodamine B assay; conditions: HCC 2998, 48 h
SW-620 = assay: Cytotoxicity against human SW620 cells assessed as growth inhibition after 48 hrs by sulforhodamine B assay; conditions: SW-620, 48 h
SNB-19 = assay: Cytotoxicity against human SNB19 cells assessed as growth inhibition after 48 hrs by sulforhodamine B assay; conditions: SNB-19, 48 h; for CC50: read-out: LC50 (the source's name)
OVCAR-5 = assay: Cytotoxicity against human OVCAR5 cells assessed as growth inhibition after 48 hrs by sulforhodamine B assay; conditions: OVCAR-5, 48 h
SK-OV-3 = assay: Cytotoxicity against human SKOV3 cells assessed as growth inhibition after 48 hrs by sulforhodamine B assay; conditions: SK-OV-3, 48 h
A498 = assay: Cytotoxicity against human A498 cells assessed as growth inhibition after 48 hrs by sulforhodamine B assay; conditions: A498, 48 h
ACHN = assay: Cytotoxicity against human ACHN cells assessed as cell growth at 0.01 uM after 48 hrs by sulforhodamine B assay relative to control; conditions: read-out: Activity
HCT-15 = assay: Cytotoxicity against human HCT15 cells assessed as cell growth at 0.01 uM after 48 hrs by sulforhodamine B assay relative to control; conditions: HCT-15, 48 h, read-out: Activity
HCC 2998 [4] = assay: Cytotoxicity against human HCC2998 cells assessed as cell growth at 0.01 uM after 48 hrs by sulforhodamine B assay relative to control; conditions: HCC 2998, 48 h, read-out: Activity
NCI-H322M = assay: Cytotoxicity against human NCI-H322M cells assessed as cell growth at 0.01 uM after 48 hrs by sulforhodamine B assay relative to control; conditions: read-out: Activity
A549 [5] = assay: Cytotoxicity against human A549/ATCC cells assessed as cell growth at 0.01 uM after 48 hrs by sulforhodamine B assay relative to control; conditions: A549, 48 h, read-out: Activity
SN12C [6] = assay: Cytotoxicity against human SN12C cells assessed as cell growth at 0.01 uM after 48 hrs by sulforhodamine B assay relative to control; conditions: read-out: Activity
MOLT-4 [7] = assay: Cytotoxicity against human MOLT4 cells assessed as cell growth at 0.1 uM after 48 hrs by sulforhodamine B assay relative to control; conditions: MOLT-4, 48 h, read-out: Activity
RPMI-8226 [8] = assay: Cytotoxicity against human RPMI8226 cells assessed as cell growth at 0.1 uM after 48 hrs by sulforhodamine B assay relative to control; conditions: RPMI-8226, 48 h, read-out: Activity
COLO 205 [9] = assay: Cytotoxicity against human COLO205 cells assessed as cell growth at 0.1 uM after 48 hrs by sulforhodamine B assay relative to control; conditions: COLO 205, 48 h, read-out: Activity
786-0 = assay: Cytotoxicity against human 786-0 cells assessed as cell growth at 0.1 uM after 48 hrs by sulforhodamine B assay relative to control; conditions: 786-0, 48 h, read-out: Activity
SN12C [10] = assay: Cytotoxicity against human SN12C cells assessed as cell growth at 0.1 uM after 48 hrs by sulforhodamine B assay relative to control; conditions: read-out: Activity
Hs-578T = assay: Cytotoxicity against human Hs 578T cells assessed as cell growth at 0.1 uM after 48 hrs by sulforhodamine B assay relative to control; conditions: read-out: Activity
T47D [11] = assay: Cytotoxicity against human T47D cells assessed as cell growth at 0.1 uM after 48 hrs by sulforhodamine B assay relative to control; conditions: read-out: Activity
K562 = assay: Cytotoxicity against human K562 cells assessed as cell growth at 1 uM after 48 hrs by sulforhodamine B assay relative to control; conditions: K562, 48 h, read-out: Activity
A549 [12] = assay: Cytotoxicity against human A549/ATCC cells assessed as cell growth at 1 uM after 48 hrs by sulforhodamine B assay relative to control; conditions: A549, 48 h, read-out: Activity
HCT-116 = assay: Cytotoxicity against human HCT116 cells assessed as cell growth at 1 uM after 48 hrs by sulforhodamine B assay relative to control; conditions: HCT-116, 48 h, read-out: Activity
U-251 = assay: Cytotoxicity against human U251 cells assessed as cell growth at 1 uM after 48 hrs by sulforhodamine B assay relative to control; conditions: U-251, 48 h, read-out: Activity
MDA-MB-435 [13] = assay: Cytotoxicity against human MDA-MB-435 cells assessed as cell growth at 1 uM after 48 hrs by sulforhodamine B assay relative to control; conditions: MDA-MB-435, 48 h, read-out: Activity
OVCAR-4 = assay: Cytotoxicity against human OVCAR4 cells assessed as cell growth at 1 uM after 48 hrs by sulforhodamine B assay relative to control; conditions: OVCAR-4, 48 h, read-out: Activity
UO-31 = assay: Cytotoxicity against human UO31 cells assessed as cell growth at 1 uM after 48 hrs by sulforhodamine B assay relative to control; conditions: UO-31, 48 h, read-out: Activity
COLO 205 [14] = assay: Cytotoxicity against human COLO205 cells assessed as cell growth at 10 uM after 48 hrs by sulforhodamine B assay relative to control; conditions: COLO 205, 48 h, read-out: Activity
MDA-MB-435 [15] = assay: Cytotoxicity against human MDA-MB-435 cells assessed as cell growth at 10 uM after 48 hrs by sulforhodamine B assay relative to control; conditions: MDA-MB-435, 48 h, read-out: Activity
T47D [16] = assay: Cytotoxicity against human T47D cells assessed as cell growth at 10 uM after 48 hrs by sulforhodamine B assay relative to control; conditions: read-out: Activity
MOLT-4 [17] = assay: Cytotoxicity against human MOLT4 cells assessed as cell growth at 100 uM after 48 hrs by sulforhodamine B assay relative to control; conditions: MOLT-4, 48 h, read-out: Activity
M14 = assay: Cytotoxicity against human M14 cells assessed as cell growth at 100 uM after 48 hrs by sulforhodamine B assay relative to control; conditions: M14, 48 h, read-out: Activity
TK-10 = assay: Cytotoxicity against human TK10 cells assessed as cell growth at 100 uM after 48 hrs by sulforhodamine B assay relative to control; conditions: TK-10, 48 h, read-out: Activity
MCF7 = assay: Cytotoxicity against human MCF7 cells assessed as cell growth at 100 uM after 48 hrs by sulforhodamine B assay relative to control; conditions: MCF7, 48 h, read-out: Activity

With COc1ccc(-c2cc(/C=C/C(=O)c3ccc(N)cc3)[nH]n2)cc1OC the GI50 (RPMI-8226 [1]) was 1.28 µM, the LC50 (RPMI-8226 [1]) was over 100 µM and the TGI (RPMI-8226 [1]) was 5.52 µM. For the same compound, the GI50 (SR) was 0.58 µM, the TGI (SR) was 5.31 µM and the CC50 (SR) was over 100 µM. It also gave a GI50 (A549 [2]) of 2.75 µM, an LC50 (concentration giving 50% net cell kill) (A549 [2]) of 45.2 µM and a TGI (A549 [2]) of 10.1 µM. It also gave a GI50 (HCC 2998 [3]) of 2.02 µM, an LC50 (HCC 2998 [3]) of 7.24 µM and a TGI (HCC 2998 [3]) of 3.83 µM. For the same compound, the GI50 (SW-620) was 2.5 µM, the LC50 (lethal concentration, 50% net cell kill) (SW-620) was 82.9 µM and the TGI (SW-620) was 6.94 µM. For the same compound, the GI50 (SNB-19) was 4.36 µM, the TGI (SNB-19) was 18 µM and the CC50 (SNB-19) was 46.1 µM. For the same compound, the GI50 (OVCAR-5) was 2.62 µM, the LC50 (OVCAR-5) was 36.3 µM and the TGI (OVCAR-5) was 7.94 µM. For the same compound, the GI50 (SK-OV-3) was 4.86 µM, the LC50 (SK-OV-3) was 41.3 µM and the TGI (SK-OV-3) was 16.8 µM. For the same compound, the GI50 (A498) was 2.37 µM, the LC50 (A498) was 26.2 µM and the TGI (A498) was 7.09 µM. The growth at 0.01 µM (ACHN) was 93%, the growth at 0.01 µM (HCT-15) was 93% and the growth at 0.01 µM (HCC 2998 [4]) was 102%. The growth at 0.01 µM (NCI-H322M) was 96%, the growth at 0.01 µM (A549 [5]) was 97% and the growth at 0.01 µM (SN12C [6]) was 101%. The growth at 0.1 µM (MOLT-4 [7]) was 106%, the growth at 0.1 µM (RPMI-8226 [8]) was 96% and the growth at 0.1 µM (COLO 205 [9]) was 95%. It also gave a growth at 0.1 µM (786-0) of 95%, a growth at 0.1 µM (SN12C [10]) of 99% and a growth at 0.1 µM (Hs-578T) of 93%. For the same compound, the growth at 0.1 µM (T47D [11]) was 90%, the growth at 1 µM (K562) was 71% and the growth at 1 µM (A549 [12]) was 89%. For the same compound, the growth at 1 µM (HCT-116) was 87%, the growth at 1 µM (U-251) was 88% and the growth at 1 µM (MDA-MB-435 [13]) was 94%. The growth at 1 µM (OVCAR-4) was 69%, the growth at 1 µM (UO-31) was 86% and the growth at 10 µM (COLO 205 [14]) was -79%. The growth at 10 µM (MDA-MB-435 [15]) was -15%, the growth at 10 µM (T47D [16]) was 28% and the growth at 100 µM (MOLT-4 [17]) was -22%. The growth at 100 µM (M14) was -90%, the growth at 100 µM (TK-10) was -98% and the growth at 100 µM (MCF7) was -58%.
COc1cc(-c2cc(/C=C/C(=O)c3ccc4c(c3)OCO4)[nH]n2)cc(OC)c1OC was tested, and the LC50 (RPMI-8226 [1]) was over 100 µM, the TGI (RPMI-8226 [1]) was 2.94 µM and the TGI (SR) was over 100 µM. It also gave a CC50 (SR) of over 100 µM, an LC50 (concentration giving 50% net cell kill) (A549 [2]) of over 100 µM and a TGI (A549 [2]) of over 100 µM. For the same compound, the LC50 (HCC 2998 [3]) was 6.43 µM, the TGI (HCC 2998 [3]) was 3.54 µM and the LC50 (lethal concentration, 50% net cell kill) (SW-620) was over 100 µM. It also gave a TGI (SNB-19) of over 100 µM, a CC50 (SNB-19) of over 100 µM and an LC50 (OVCAR-5) of over 100 µM. It also gave a TGI (OVCAR-5) of 93.5 µM, an LC50 (SK-OV-3) of over 100 µM and a TGI (SK-OV-3) of 26.1 µM. It also gave an LC50 (A498) of over 100 µM, a TGI (A498) of 15.4 µM and a growth at 0.01 µM (ACHN) of 108%. For the same compound, the growth at 0.01 µM (HCT-15) was 95%, the growth at 0.01 µM (HCC 2998 [4]) was 104% and the growth at 0.01 µM (NCI-H322M) was 94%. The growth at 0.01 µM (A549 [5]) was 101%, the growth at 0.01 µM (SN12C [6]) was 97% and the growth at 0.1 µM (MOLT-4 [7]) was 103%. For the same compound, the growth at 0.1 µM (RPMI-8226 [8]) was 83%, the growth at 0.1 µM (COLO 205 [9]) was 101% and the growth at 0.1 µM (786-0) was 97%. For the same compound, the growth at 0.1 µM (SN12C [10]) was 96%, the growth at 0.1 µM (Hs-578T) was 98% and the growth at 0.1 µM (T47D [11]) was 91%. The growth at 1 µM (K562) was 102%, the growth at 1 µM (A549 [12]) was 92% and the growth at 1 µM (HCT-116) was 90%. For the same compound, the growth at 1 µM (U-251) was 85%, the growth at 1 µM (MDA-MB-435 [13]) was 90% and the growth at 1 µM (OVCAR-4) was 82%. For the same compound, the growth at 1 µM (UO-31) was 81%, the growth at 10 µM (COLO 205 [14]) was -66% and the growth at 10 µM (MDA-MB-435 [15]) was -15%. For the same compound, the growth at 10 µM (T47D [16]) was 6%, the growth at 100 µM (MOLT-4 [17]) was -10% and the growth at 100 µM (M14) was 22%. For the same compound, the growth at 100 µM (TK-10) was -47% and the growth at 100 µM (MCF7) was 3%.
